We go through four compounds from patent publication US20110218107A1 (priority 2010, published 2011).

Read-outs that look alike come from different tables or passages of the source.

For test [1], the system named is vines. Conditions: cited from earlier work.
Test [2] deals with tomato plants of the cultivar "Harzfeuer". As to the kind of experiment: Greenhouse test tomato under zinc deficiency: plant weight and plant height. It counts as in vivo. Conditions: 0% Zn supply. Here is the method:
(§1) Greenhouse experiments (Examples A and B) were carried out to evaluate the effect of fungicide applications on the growth and development of plants cultivated under Zn deficiency, in particular the effect of Propineb and Mancozeb on the growth and development of banana and tomato plants. Banana plants and tomato plants of the cultivar “Harzfeuer” were cultivated on rock wool at different zinc regimes, 100% and 0% zinc level, with and without Propineb or Mancozeb applications.
Tomato on rock wool has been sowed and approximately after 3 weeks, the plants have been transferred to rock wool bags. After the specified intervals the plants have been treated either 2 times preventive or one time curative and have been fertilized with a modified Hoagland solution which contained 100% or 0% zinc and having the composition as given below. Propineb and Mancozeb were applied. The fertilization was carried out in combination with the irrigation, using a drip application system.
Propineb has been applied through spray application of commercially available Antracol 70WG solution (conc. 0.15% Propineb). Mancozeb has been applied as commercially available Dithane NeoTec® 75WG (conc. 0.15% Mancozeb). Preventive treatments with Propineb or Mancozeb were carried out 27 days and 57 days (Treatment No. 3 and Treatment No. 5) after sowing. Curative applications of Propineb or Mancozeb were carried out 95 days (Treatment No. 4 and Treatment No. 6) after sowing according to the following regime:
The effect of preventive and curative treatments of Propineb and Mancozeb on the growth and development of tomato plants was evaluated by measuring the plant weight and plant height. The assessment of Treatment No. 3 and Treatment No. 5 was carried out 95 days after sowing. The morphological assessment of Treatment No. 4 and Treatment No. 6 was carried out 132 days after sowing.

Test [3] relates to banana plants. As to the kind of experiment: Greenhouse test banana under zinc deficiency: leaf size and leaf weight. Format: in vivo. Conditions: 0% Zn supply. The procedure:
as §1
(§2) Banana on rock wool has been sowed and approximately after 3 weeks, the plants have been transferred to rock wool bags. After the specified intervals the plants have been treated 2 times preventive or one time curative with Propineb and/or have been fertilized with a modified Hoagland solution which contained 100% or 0% zinc and having the composition as given below. The fertilization was carried out in combination with the irrigation, using a drip application system.
(§3) Propineb has been applied through spray application of commercially available Antracol 70WG solution (conc. 0.15% Propineb). Preventive treatments with Propineb were carried out 34 days and 57 days (Treatment No. 3) after sowing. Curative application of Propineb was carried out 85 days (Treatment No. 4) after sowing according to the following regime:
(§4) The effect of preventive and curative Propineb treatments on the growth and development of banana plants was evaluated by measuring the leaf size, leaf weight and the chlorophyll a fluorescence using a Handy PEA system. The assessment of Treatment No. 3 was carried out 101 days after sowing. The morphological assessment of Treatment No. 4 was carried out 121 days after sowing. The chlorophyll a fluorescence was measured 13 and 28 days after the curative application of Propineb.

The test system of test [4] is banana plants. As to the kind of experiment: Greenhouse test banana under zinc deficiency: chlorophyll a fluorescence (Handy PEA). It counts as in vivo. Conditions: 0% Zn supply, curative treatment. Here is the method: as §1, §2, §3, §4
Fv/Fm: Fv/Fm is a parameter widely used to indicate the maximum quantum efficiency of photosystem II(PSII) This parameter is widely considered to be a selective indication of plant photosynthetic performance with healthy samples typically achieving a maximum Fv/Fm value of approx. 0.85. Values lower than this will be observed if a sample has been exposed to some type of biotic or abiotic stress factor which has reduced the capacity for photo-chemical quenching of energy within PSII. Fv/Fm is presented as a ratio of variable fluorescence (Fv) over the maximum fluorescence value (Fm). The Performance Index is essentially an indicator of sample vitality. (See e.g. Advanced Techniques in Soil Microbiology, 2007, 11, 319-341; Applied Soil Ecology, 2000, 15, 169-182.)

Setting [5] is: curative spray 95 days after sowing (conc. 0.15%), assessed 132 days after sowing.
The mark [6] stands for this setting: preventive spray 27 and 57 days after sowing (conc. 0.15%), assessed 95 days after sowing.
Where [7] appears, read: curative spray 85 days after sowing (0.15% Propineb), assessed 121 days after sowing.
Setting [8] is: preventive spray 34 and 57 days after sowing (0.15% Propineb), assessed 101 days after sowing.
Setting [9] is: 1st measurement (13 days after curative application).
[10] abbreviates: 2nd measurement (28 days after curative application).

As for `S=C(S)NCCNC(=S)S` [Zineb], the “yield and growth compared to untreated vines” value in test [1] (vines, ISHS Acta Horticulturae 1987, 199, 157-161) was “significantly greater yield and growth”.

For `O=S(=O)([O-])[O-].[Zn+2]` [zinc sulfate], the “yield and growth compared to untreated vines” value in test [1] (in vivo) was “significantly greater yield and growth”.

Consider Mancozeb, for which the Plant weight in test [2] (setting [5]) was found to be 409 g. Also, in test [2] (setting [6]), the Plant height was 64 and the Plant weight is recorded as 249 g.

For Propineb, in test [3] (setting [7]), the Leaf size is listed as 2101 ± 612 cm^2 and the Leaf weight is on record as 90 g. Also, in test [3] (setting [8]), the Average leaf size amounted to 2062 ± 284 cm^2 and the Average leaf weight is 76 g. For the same compound, in test [4] (setting [9]), the Fv/Fm came to 0.82 and the Performance index is recorded as 2.21. In test [4] (setting [10]), the Fv/Fm is 0.83 and the Performance index is given as 2.69. Also, in test [2] (setting [5]), the Plant weight is recorded as 568 g. Also, in test [2] (setting [6]), the Plant height was determined as 76 and the Plant weight is given as 341 g.
